pIC50: −log10 of the molar value.
Experiments:
[1] = target: CDK4/CyclinD1 (Homo sapiens, UniProt P11802); assay: CDK4/CyclinD1 Flashplate assay, 96-well format, biotinylated-Rb peptide substrate; type: biochemical
Summary of the method: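 Biotinylated Rb peptide bound to streptavidin Flashplate; CDK4/CyclinD1 (70 ng/well) preincubated 30 min on ice with compound at 10, 3, 1, 0.3 and 0.1 μM final. Reaction with 1 μM cold ATP plus 33P-ATP for 45 min at RT; incorporated 33P counted, duplicates.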

[2] = target: CDK2/CyclinE (Homo sapiens, UniProt P24941); assay: CDK2/CyclinE Flashplate assay, 96-well format, biotinylated-Rb peptide substrate; type: biochemical
Summary of the method: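 Biotinylated Rb peptide was captured on streptavidin Flashplates, and CDK2/CyclinE (200 ng/well) was preincubated 30 min on ice with inhibitor at 10, 3, 1, 0.3 or 0.1 μM final. Reactions ran 45 min at RT with 1 μM ATP plus 1 μCi ^33P-ATP. After washing, incorporated ^33P was counted, in duplicate.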

Chain of CDK4/CyclinD1 (P11802 whole entry, species assumed): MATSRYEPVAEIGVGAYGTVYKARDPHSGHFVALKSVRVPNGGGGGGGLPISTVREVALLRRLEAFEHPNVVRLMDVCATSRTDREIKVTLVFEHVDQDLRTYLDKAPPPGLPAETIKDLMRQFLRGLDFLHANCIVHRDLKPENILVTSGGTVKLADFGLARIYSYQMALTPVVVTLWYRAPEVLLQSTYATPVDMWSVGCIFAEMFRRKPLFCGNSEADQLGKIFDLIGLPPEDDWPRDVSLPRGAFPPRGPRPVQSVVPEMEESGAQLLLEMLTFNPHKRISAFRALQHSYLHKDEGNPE
Chain of CDK4/CyclinD1 (P24385 whole entry partner, species assumed): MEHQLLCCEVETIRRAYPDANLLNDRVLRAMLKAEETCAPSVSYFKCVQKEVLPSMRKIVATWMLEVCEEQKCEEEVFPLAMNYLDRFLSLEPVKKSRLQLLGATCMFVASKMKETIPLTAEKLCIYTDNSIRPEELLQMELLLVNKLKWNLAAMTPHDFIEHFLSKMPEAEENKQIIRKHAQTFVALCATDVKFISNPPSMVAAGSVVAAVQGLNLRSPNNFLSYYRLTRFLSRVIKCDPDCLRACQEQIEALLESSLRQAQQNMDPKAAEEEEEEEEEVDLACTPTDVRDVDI

Structure (SMILES) | pIC50 [1] | pIC50 [2] | inhibition at 10 µM [1] [%]
COC(=O)CCC(=O)Nc1nc2cc(OS(=O)(=O)c3ccc(-n4ccnc4)cc3)ccc2[nH]1 [Example 23, N-[5-(4-Imidazol-1-yl-benzenesulfonyloxy)-1H-benzoimidazol-2-yl]-succinamic acid methyl ester] | 5.51 | 6.40 | –
O=C(NCCN1CCCC1)Nc1nc2cc(OS(=O)(=O)c3ccc(NCC4CCCO4)cc3)ccc2[nH]1 (centres unmarked) [Example 59-g, 4-[(Tetrahydro-furan-2-ylmethyl)-amino]-benzenesulfonic acid 2-[3-(2-pyrrolidin-1-yl-ethyl)-ureido]-1H-benzoimidazol-5-yl ester] | 5.74 | 6.70 | –
COC(=O)Nc1nc2cc(OS(=O)(=O)c3c(F)cccc3F)ccc2[nH]1 [Example 62-h, 2,6-Difluoro-benzenesulfonic acid 2-methoxycarbonylamino-1H-benzoimidazol-5-yl ester] | 6.10 | 7.15 | –
COC(=O)Nc1nc2cc(OS(=O)(=O)c3ccc(-c4cc(C(F)(F)F)n(C)n4)s3)ccc2[nH]1 [Example 62-e, 5-(1-Methyl-5-trifluoromethyl-1H-pyrazol-3-yl)-thiophene-2-sulfonic acid 2-methoxycarbonylamino-1H-benzoimidazol-5-yl ester] | 5.34 | 6.00 | –
O=C(NCCS(=O)(=O)O)Nc1nc2cc(OS(=O)(=O)c3ccc(NCC4CCCO4)cc3)ccc2[nH]1 (centres unmarked) [Example 59-n, 4-[(Tetrahydro-furan-2-ylmethyl)-amino]-benzenesulfonic acid 2-[3-(2-sulfo-ethyl)-ureido]-1H-benzoimidazol-5-yl ester] | 6.89 | 7.44 | –
O=C(Nc1nc2cc(OS(=O)(=O)c3ccc(-n4ccnc4)cc3)ccc2[nH]1)NC1CCCCC1 [Example 57-b, 4-Imidazol-1-yl-benzenesulfonic acid 2-(3-cyclohexyl-ureido)-1H-benzoimidazol-5-yl ester] | – | 5.72 | 51
CCC(CO)Nc1ccc(S(=O)(=O)Oc2ccc3[nH]c(NC(=O)OC)nc3c2)cc1 (centres unmarked) [Example 11, Methyl-5-(4-[1-ethyl, 2-hydroxyethyl]aminophenylsulfonyloxy)benzimidazole-2-carbamate] | 6.03 | 6.30 | –
O=C(Nc1nc2cc(OS(=O)(=O)c3ccc(-n4ccnc4)cc3)ccc2[nH]1)Nc1ccccc1F [Example 36, 4-Imidazol-1-yl-benzenesulfonic acid 2-[3-(2-fluoro-phenyl)-ureido]-1H-benzoimidazol-5-yl ester] | 6.11 | 6.28 | –
CNC(=O)Nc1nc2cc(OS(=O)(=O)c3ccc(-n4ccnc4)cc3)ccc2[nH]1 [Example 30, N-[5-(4-[imidazolyl]-phenylsulfonyloxy)-1H-benzimidazole-2-yl]-methylurea] | 5.74 | 6.05 | –
COC(=O)Nc1nc2cc(OS(=O)(=O)c3ccc(NCCS(=O)(=O)O)cc3)ccc2[nH]1 [Example 15, Methyl-5-(4-[2-sulfonylethyl]aminophenylsulfonyloxy) benzimidazole-2-carbamate] | 6.52 | 5.74 | –
COC(=O)Nc1nc2cc(OS(=O)(=O)c3ccc(NC(C)C)cc3)ccc2[nH]1 [Example 10, Methyl-5-(4-isopropylaminophenylsulfonyloxy) benzimidazole-2-carbamate] | 6.15 | 6.10 | –
CCN(CC)CCNc1ccc(S(=O)(=O)Oc2ccc3[nH]c(NC(=O)OC)nc3c2)cc1 [Example 17, Methyl-5-(4-[2-diethylaminoethyl]aminophenyl-sulfonyloxy) benzimidazole-2-carbamate] | 5.20 | 5.70 | –
COC(=O)Nc1nc2cc(OS(=O)(=O)c3cccc(OC)c3)ccc2[nH]1 [Example 62-i, 3-Methoxy-benzenesulfonic acid 2-methoxycarbonylamino-1H-benzoimidazol-5-yl ester] | 5.82 | 6.00 | –
CCNc1ccc(S(=O)(=O)Oc2ccc3[nH]c(NC(=O)OC)nc3c2)cc1 [Example 6, Methyl-5-(4-ethylaminophenylsulfonyloxy) benzimidazole-2-carbamate] | 6.08 | 6.52 | –
O=C(Nc1nc2cc(OS(=O)(=O)c3ccc(-n4ccnc4)cc3)ccc2[nH]1)N1CCC1 [Example 57-i, 4-Imidazol-1-yl-benzenesulfonic acid 2-[(azetidine-1-carbonyl)-amino]-1H-benzoimidazol-5-yl ester] | – | 5.28 | 27
O=C(NCC1CCNCC1)Nc1nc2cc(OS(=O)(=O)c3ccc(NC4CCCC4)cc3)ccc2[nH]1 [Example 58-u, 4-Cyclopentylamino-benzenesulfonic acid 2-(3-piperidin-4-ylmethyl-ureido)-1H-benzoimidazol-5-yl ester] | 6.54 | 8.00 | –
CCN1CCCC1CNC(=O)Nc1nc2cc(OS(=O)(=O)c3ccc(NCC4CCCO4)cc3)ccc2[nH]1 (centres unmarked) [Example 59-f, 4-[(Tetrahydro-furan-2-ylmethyl)-amino]-benzenesulfonic acid 2-[3-(1-ethyl-pyrrolidin-2-ylmethyl)-ureido]-1H-benzoimidazol-5-yl ester] | 5.74 | 7.22 | –
COC(=O)CCCC(=O)Nc1nc2cc(OS(=O)(=O)c3ccc(NC4CCCC4)cc3)ccc2[nH]1 [Example 26, 4-[5-(4-Cyclopentylamino-benzenesulfonyloxy)-1H-benzoimidazol-2-ylcarbamoyl]-butyric acid methyl ester] | 6.17 | 6.89 | –

Other lines, results leading:

pIC50 [1] | pIC50 [2] | inhibition at 10 µM [1] [%] | Structure (SMILES)
5.77 | 6.22 | – | CN(C)CC(=O)Nc1nc2cc(OS(=O)(=O)c3ccc(NC4CCCC4)cc3)ccc2[nH]1 [Example 29, 4-Cyclopentylamino-benzenesulfonic acid 2-(2-dimethylamino-acetylamino)-1H-benzoimidazol-5-yl ester]
6.51 | 7.40 | – | O=C(Nc1nc2cc(OS(=O)(=O)c3ccc(NC4CCCC4)cc3)ccc2[nH]1)N[C@H]1CC[C@H](O)CC1 [Example 58-x, 4-Cyclopentylamino-benzenesulfonic acid 2-[3-(4trans-hydroxy-cyclohexyl)-ureido]-1H-benzoimidazol-5-yl ester]
6.74 | 7.00 | – | CC(CO)NC(=O)Nc1nc2cc(OS(=O)(=O)c3ccc(NC4CCCC4)cc3)ccc2[nH]1 (centres unmarked) [Example 58-ak, 4-Cyclopentylamino-benzenesulfonic acid 2-[3-(2-hydroxy-1-methyl-ethyl)-ureido]-1H-benzoimidazol-5-yl ester]
6.89 | 7.10 | – | COC(=O)CCC(=O)Nc1nc2cc(OS(=O)(=O)c3ccc(NC4CCCC4)cc3)ccc2[nH]1 [Example 25, N-[5-(4-Cyclopentylamino-benzenesulfonyloxy)-1H-benzoimidazol-2-yl]-succinamic acid methyl ester]
6.89 | 7.80 | – | NC(=O)CCNC(=O)Nc1nc2cc(OS(=O)(=O)c3ccc(NC4CCCC4)cc3)ccc2[nH]1 [Example 58-ad, 4-Cyclopentylamino-benzenesulfonic acid 2-[3-(2-carbamoyl-ethyl)-ureido]-1H-benzoimidazol-5-yl ester]
– | 6.15 | 91 | O=C(Nc1ccc(F)cc1)Nc1nc2cc(OS(=O)(=O)c3ccc(NC4CCCC4)cc3)ccc2[nH]1 [Example 58-f, 4-Cyclopentylamino-benzenesulfonic acid 2-[3-(4-fluoro-phenyl)-ureido]-1H-benzoimidazol-5-yl ester]
7.92 | 7.22 | – | O=C(O)CNC(=O)Nc1nc2cc(OS(=O)(=O)c3ccc(NC4CCCC4)cc3)ccc2[nH]1 [Example 46, {3-[5-(4-Cyclopentylamino-benzenesulfonyloxy)-1H-benzoimidazol-2-yl]-ureido}-acetic acid]
– | 6.04 | 84 | O=C(Nc1cccc(Cl)c1)Nc1nc2cc(OS(=O)(=O)c3ccc(NC4CCCC4)cc3)ccc2[nH]1 [Example 42, 4-Cyclopentylamino-benzenesulfonic acid 2-[3-(3-chloro-phenyl)-ureido]-1H-benzoimidazol-5-yl ester]
7.00 | 7.40 | – | O=C(NCCO)Nc1nc2cc(OS(=O)(=O)c3ccc(NC4CCCC4)cc3)ccc2[nH]1 [Example 58-e, 4-Cyclopentylamino-benzenesulfonic acid 2-[3-(2-hydroxy-ethyl)-ureido]-1H-benzoimidazol-5-yl ester]
6.62 | 7.52 | – | COC(=O)CCCNC(=O)Nc1nc2cc(OS(=O)(=O)c3ccc(NC4CCCC4)cc3)ccc2[nH]1 [Example 58-m, 4-{3-[5-(4-Cyclopentylamino-benzenesulfonyloxy)-1H-benzoimidazol-2-yl]-ureido}-butyric acid methyl ester]
– | 6.42 | 96 | O=C(Nc1ccccc1)Nc1nc2cc(OS(=O)(=O)c3ccc(NC4CCCC4)cc3)ccc2[nH]1 [Example 58-a, 4-Cyclopentylamino-benzenesulfonic acid 2-(3-phenyl-ureido)-1H-benzoimidazol-5-yl ester]
6.08 | 6.89 | – | COc1ccc(Nc2nc3cc(OS(=O)(=O)c4ccc(NC5CCCC5)cc4)ccc3[nH]2)cc1OC [Example 69, 4-cyclopentylamino-benzenesulfonic acid 2-(3,4-dimethoxy-phenylamino)-1H-benzoimidazol-5-yl ester]
7.92 | 7.70 | – | NC(=O)CNC(=O)Nc1nc2cc(OS(=O)(=O)c3ccc(NC4CCCC4)cc3)ccc2[nH]1 [Example 58-s, 4-Cyclopentylamino-benzenesulfonic acid 2-(3-carbamoylmethyl-ureido)-1H-benzoimidazol-5-yl ester]

From patent US20050014811A1, “Substituted benzimidazole compounds and their use for the treatment of cancer” (Aventis Pharma S.A., priority 2001, published 2005)
